Laboratory results: patent US8093296B2 (Mutual Pharmaceutical Company, Inc., priority 2008, dated 2012)
“Also recorded” adds a separate entry of the source. Read-outs that look alike come from different tables or passages of the source.

Columns and labels:
[1] = Pharmacokinetic study in healthy adults of single vs. multiple oral doses of colchicine tablets (Example 1); assay type: in vivo, human; conditions: for concentration at 25 day: 0.6 mg;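 for all read-outs here: each subject received both dosing periods, single and repeated oral dosing, with a 14-day washout interval between periods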
Description: Subjects received a light breakfast served 60 minutes following dose administration in the morning and the evening dose was administered 90 minutes after an evening meal on Days 15 through 24 only. […] Study periods were separated by a 14-day washout. Following the single dose and the last dose of the multiple dose regimen (beginning on the mornings of Day 1 and Day 25, respectively), blood samples were collected (6 mL each) from each subject within 1 hour prior to dosing and after dose administration at study hours 0.5, 1, 1.5, 2, 3, 4, 6, 8, 10, 12, and 24 (while confined) and 36, 48, 72, and 96 (on an outpatient basis).

CYP2C9/19 = conditions: Dvorak 2000, preliminary; 1 and 10 μM colchicine; cited from earlier work
[2] = cited from earlier work
clinical = conditions: human, in vivo, 0.6 mg
Description: A single-center, open-label, one sequence, two-period study was carried out in 23 healthy subjects. […] After completing a 21-day washout period, all subjects received 250 mg of clarithromycin administered twice daily for 7 days (Days 22 through 29), a sufficient dose and duration to inhibit CYP3A4 and Pgp.

[3] = colchicine administration; cited from earlier work
[4] = colchicine 0.6 mg twice a day, two randomized clinical trials, patients initiating urate lowering therapy; cited from earlier work
[5] = Colchicine elimination half-life after multiple oral doses in young healthy volunteers; assay type: in vivo; conditions: human, plasma; multiple oral doses 0.6 mg twice daily, young healthy volunteers (mean age 25 to 28 years)
[6] = co-administration of clarithromycin vs colchicine alone
[7] = colchicine 0.6 mg with steady-state clarithromycin vs colchicine alone
[8] = mean, Day 1, single-dose colchicine 0.6 mg alone, healthy adults n=23
[9] = mean, multiple (b.i.d.) oral doses 0.6 mg x 10 days, Day 25, healthy adults N=13
[10] = mean, single oral dose 0.6 mg, healthy adults N=13
[11] = median, multiple (b.i.d.) oral doses 0.6 mg x 10 days, Day 25, healthy adults N=13
[12] = median, single oral dose 0.6 mg, healthy adults N=13

COc1cc2c(c(OC)c1O)-c1ccc(OC)c(=O)cc1[C@@H](NC(C)=O)CC2 [2-DMC, 2-O-demethylcolchicine]
metabolite plasma concentrations ([1]; after colchicine 0.6 mg single and multiple doses, LOQ 0.2 ng/mL): < 0.2 ng/mL

COc1c(O)cc2c(c1OC)-c1ccc(OC)c(=O)cc1[C@@H](NC(C)=O)CC2 [3-DMC, 3-O-demethylcolchciine]
CYP2C9/19 protein levels (immunoblotting) (CYP2C9/19): decrease
detectable metabolite plasma concentration ([1]; after colchicine 0.6 mg single and multiple doses, 13 subjects): only one sample from 1 subject (of 13 subjects) had a detectable

CC[C@H]1OC(=O)[C@H](C)[C@@H](O[C@H]2C[C@@](C)(OC)[C@@H](O)[C@H](C)O2)[C@H](C)[C@@H](O[C@@H]2O[C@H](C)C[C@H](N(C)C)[C@H]2O)[C@](C)(OC)C[C@@H](C)C(=O)[C@H](C)[C@@H](O)[C@]1(C)O [Clarithromycin]
oral dose excreted in feces ([2]; in vivo, po): About 40%
dose excreted as unchanged drug in urine ([2]; oral 250 mg every 12 hours): Approximately 20%
dose excreted as unchanged drug in urine ([2]; oral 500 mg every 12 hours): ~30%
absolute bioavailability ([2]; oral administration): approximately 50%
increase of peak concentration by food ([2]; with food): about 24%

COc1cc2c(c(OC)c1OC)-c1ccc(OC)c(=O)cc1[C@@H](NC(C)=O)CC2 [Colchicine, (−)-N-[(7S,12aS)-1,2,3,10-tetramethoxy-9-oxo-5,6,7,9-tetrahydrobenzo[a]heptalen-7-yl]-acetamide]
AUC0-inf (clinical): 16 ng·h/mL
AUC0-t (clinical): 12 ng·h/mL
Vd/F (clinical): 432 L
decrease in apparent clearance (CL/F) of colchicine [6]: 75%
increase in plasma elimination half-life (t1/2) of colchicine [6]: 233%
increase in mean colchicine AUC0-t [7]: 250%
increase in mean colchicine Cmax [7]: 167%
CL/F [8]: 46.8 L/h
Cmax [8]: 3 ng/mL
Ke [8]: 0.132 h⁻¹
t1/2 [8]: 9 h
FMF patients that do not show a beneficial response [3]: 5-10%
CYP2C9/19 protein levels (immunoblotting) (CYP2C9/19): appeared to decrease
frequency of gout flares [4]: decreased the frequency of gout flares
half-life [5]: 26.6 to 31.2 h
attainment of steady state (trough plasma concentrations) ([1]; 0.6 mg b.i.d., most subjects): by approximately the eighth day of dosing
plasma concentrations 24 hours post-dose ([1]; after a single 0.6 mg dose): no longer quantifiable 24 hours post-dose in all but 1 subject; also recorded: not detectable by 24 hours post-dose
elimination half-life ([1]; calculated following a single oral dose, stated not an accurate estimate): approximately 5 hours
concentration at 25 day ([1]; human, in vivo, Day 25, read-out: mean Cmin concentration): 0.907 ng/mL
concentration at 25 day ([1]; human, in vivo, po, mean, multiple (b.i.d.) oral doses 0.6 mg x 10 days, Day 25, healthy adults N=13, read-out: Cmin): 0.907 ng/mL
concentration at 25 day ([1]; human, in vivo, po, median, multiple (b.i.d.) oral doses 0.6 mg x 10 days, Day 25, healthy adults N=13, read-out: Cave): 1.19 ng/mL
concentration at 25 day ([1]; human, in vivo, po, median, multiple (b.i.d.) oral doses 0.6 mg x 10 days, Day 25, healthy adults N=13, read-out: Cmin): 0.903 ng/mL
Vd/F ([1]; human, in vivo, mean (% CV), 0.6-mg single dose, Day 1, N=13): 540 L
AUC0-τ [1, 9]: 29.05623 ng·h/mL
Cave [1, 9]: 1.21068 ng/mL
Kel [1, 9]: 0.03 h⁻¹
AUC0-inf [1, 10]: 12.2819 ng·h/mL
AUC0-t [1, 10]: 10.50854 ng·h/mL
Cmax [1, 10]: 2.47077 ng/mL
Kel [1, 10]: 0.1829 h⁻¹
AUC0-inf [1, 11]: 54.11343 ng·h/mL
AUC0-τ [1, 11]: 28.45215 ng·h/mL
Kel [1, 11]: 0.03 h⁻¹
T1/2 [1, 11]: 26.51 h
AUC0-t [1, 12]: 10.5609 ng·h/mL
Kel [1, 12]: 0.1992 h⁻¹
secondary colchicine peak in individual subject data ([1]; single dose or multiple dosing): no subject experienced a secondary colchicine peak
Cmin prior to morning dose higher than Cmin prior to evening dose ([1]; steady state, Day 23 and Day 24): approximately 12%
